Values quoted from earlier work in patent US20160375061A1, “COMPOSITION INVOLVED IN REGULATING ENERGY CYCLE, INFLAMMATION AND INSULIN RESISTANCE DYSFUNCTIONS, AND USE THEREOF PARTICULARLY IN CARDIOMETABOLIC DISEASES” (INTERNATIONAL NUTRITION RESEARCH COMPANY, priority 2013, published 2016).

Conditions: mutation of the gene transporter OCT1; normal daily doses 1 to 3 g/day

concentrations of metformin (saturation): 30 ± 19 ng/mL
SMILES: CN(C)C(=N)N=C(N)N [metformin]
